Measurements from patent publication US8008298B2, “Pyrrolopyrazine kinase inhibitors” (Roche Palo Alto, priority 2008, dated 2011).

Row | Structure (SMILES) | melting point [°C]
1 | CC(C)(C)C(=O)c1c[nH]c2ncc(-c3ccc(S(N)(=O)=O)cc3)nc12 [Example 140, 4-[7-(2,2-Dimethyl-propionyl)-5H-pyrrolo[2,3-b]pyrazin-2-yl]-benzenesulfonamide] | 277 to 278
2 | COc1ccc(-c2cnc3[nH]cc(C(=O)C(C)(C)C)c3n2)cc1N1CCCC1 [Example 101, 1-[2-(4-Methoxy-3-pyrrolidin-1-yl-phenyl)-5H-pyrrolo[2,3-b]pyrazin-7-yl]-2,2-dimethyl-propan-1-one] | 211 to 213
3 | COc1cc(-c2cnc3[nH]cc(C(=O)NC4CCCOC4)c3n2)cc(OC)c1OC (stereo not shown) [Example 23, 2-(3,4,5-Trimethoxy-phenyl)-5H-pyrrolo[2,3-b]pyrazine-7-carboxylic acid (tetrahydro-pyran-3-yl)-amide] | 191 to 192
4 | CC(C)(C)C(=O)c1c[nH]c2ncc(-c3cccc(S(N)(=O)=O)c3)nc12 [Example 144, 3-[7-(2,2-Dimethyl-propionyl)-5H-pyrrolo[2,3-b]pyrazin-2-yl]-benzenesulfonamide] | 275 to 277
5 | COc1cc(-c2cnc3[nH]cc(C(=O)NCC(C)O)c3n2)cc(OC)c1OC (stereo not shown) [Example 22, 2-(3,4,5-Trimethoxy-phenyl)-5H-pyrrolo[2,3-b]pyrazine-7-carboxylic acid (2-hydroxy-propyl)-amide] | 201.9 to 202.6
6 | CC(C)(C)C(=O)c1c[nH]c2ncc(-c3cccc(NS(=O)(=O)c4ccc(N)cc4)c3)nc12 [Example 235, 4-Amino-N-{3-[7-(2,2-dimethyl-propionyl)-5H-pyrrolo[2,3-b]pyrazin-2-yl]-phenyl}-benzenesulfonamide] | 285 to 286
7 | COc1cc(-c2cnc3[nH]cc(C(=O)C(C)(C)C)c3n2)cc(OC)c1OC [Example 67, 2,2-Dimethyl-1-[2-(3,4,5-trimethoxy-phenyl)-5H-pyrrolo[2,3-b]pyrazin-7-yl]-propan-1-one] | 240 to 241
8 | CC1(C(=O)c2c[nH]c3ncc(-c4cccc(N5CCCC5)c4)nc23)CCCCC1 [Example 36, (1-Methyl-cyclohexyl)-[2-(3-pyrrolidin-1-yl-phenyl)-5H-pyrrolo[2,3-b]pyrazin-7-yl]-methanone] | 243 to 245.4
9 | CC(=O)N1CCN(c2ccc(-c3cnc4[nH]cc(C(=O)C5(C)CCCCC5)c4n3)cc2)CC1 [Example 186, 1-(4-{4-[7-(1-Methyl-cyclohexanecarbonyl)-5H-pyrrolo[2,3-b]pyrazin-2-yl]-phenyl}-piperazin-1-yl)-ethanone] | 278 to 284.9
10 | COc1ccc(-c2cnc3[nH]cc(C(N)=O)c3n2)cc1OC [Example 18, 2-(3,4-Dimethoxy-phenyl)-5H-pyrrolo[2,3-b]pyrazine-7-carboxylic acid amide] | 290 to 292.4
11 | CN(C)C1CCN(c2cccc(-c3cnc4[nH]cc(C(=O)C(C)(C)C)c4n3)c2)C1 (stereo not shown) [Example 202, 1-{2-[3-(3-Dimethylamino-pyrrolidin-1-yl)-phenyl]-5H-pyrrolo[2,3-b]pyrazin-7-yl}-2,2-dimethyl-propan-1-one] | 204 to 206
12 | CC(C)(C)OC(=O)N1CCN(c2cccc(-c3cnc4[nH]cc(C(=O)C5(C)CCCCC5)c4n3)c2)CC1 [Example 175, 4-{3-[7-(1-Methyl-cyclohexanecarbonyl)-5H-pyrrolo[2,3-b]pyrazin-2-yl]-phenyl}-piperazine-1-carboxylic acid tert-butyl ester] | 212 to 213
13 | COc1cc(-c2cnc3[nH]cc(C(=O)CC(C)C)c3n2)cc(OC)c1OC [Example 63, 3-methyl-1-[2-(3,4,5-trimethoxy-phenyl)-5H-pyrrolo[2,3-b]pyrazin-7-yl]-butan-1-one] | 210 to 211.4
14 | Cn1nccc1-c1ccc(-c2cnc3[nH]cc(C(=O)C(C)(C)C)c3n2)cc1 [Example 281, 2,2-Dimethyl-1-{2-[4-(2-methyl-2H-pyrazol-3-yl)-phenyl]-5H-pyrrolo[2,3-b]pyrazin-7-yl}-propan-1-one] | 257 to 258
15 | C[S+]([O-])c1ccc(-c2cnc3[nH]cc(C(=O)C(C)(C)C)c3n2)cc1N1CCCC1 (stereo not shown) [Example 107, 1-[2-(4-Methanesulfinyl-3-pyrrolidin-1-yl-phenyl)-5H-pyrrolo[2,3-b]pyrazin-7-yl]-2,2-dimethyl-propan-1-one] | 150 to 152
16 | COc1cc(-c2cnc3[nH]cc(C(=O)C4(C)CCC(O)CC4)c3n2)cc(OC)c1OC (stereo not shown) [Example 191, (4-Hydroxy-1-methyl-cyclohexyl)-[2-(3,4,5-trimethoxy-phenyl)-5H-pyrrolo[2,3-b]pyrazin-7-yl]-methanone] | 242 to 244
17 | CC1(C(=O)c2c[nH]c3ncc(-c4ccc(N5CCCCC5)cc4)nc23)CCCCC1 [Example 174, (1-Methyl-cyclohexyl)-[2-(4-piperidin-1-yl-phenyl)-5H-pyrrolo[2,3-b]pyrazin-7-yl]-methanone] | 234 to 236

The remaining lines, values ahead:

Row | melting point [°C] | Structure (SMILES)
18 | 266 to 267 | CC(=O)N1CCN(c2ccc(-c3cnc4[nH]cc(C(=O)C(C)(C)C)c4n3)cc2)CC1 [Example I-99, 1-{2-[4-(4-Acetyl-piperazin-1-yl)-phenyl]-5H-pyrrolo[2,3-b]pyrazin-7-yl}-2,2-dimethyl-propan-1-one]
19 | 197 to 198 | CC(C)c1cccc(-c2cnc3[nH]cc(C(=O)C(C)(C)C)c3n2)c1 [Example I-337, 1-[2-(3-Isopropyl-phenyl)-5H-pyrrolo[2,3-b]pyrazin-7-yl]-2,2-dimethyl-propan-1-one]
20 | 287 to 288 | CC(C)(C)C(=O)c1c[nH]c2ncc(-c3cccc(-c4cnc[nH]4)c3)nc12 [Example I-346, 1-{2-[3-(3H-Imidazol-4-yl)-phenyl]-5H-pyrrolo[2,3-b]pyrazin-7-yl}-2,2-dimethyl-propan-1-one]
21 | 187 to 190 | COCC1CCCN1c1cccc(-c2cnc3[nH]cc(C(=O)NC(C)C)c3n2)c1 (stereo not shown) [Example I-230, 2-[3-(2-Methoxymethyl-pyrrolidin-1-yl)-phenyl]-5H-pyrrolo[2,3-b]pyrazine-7-carboxylic acid isopropylamide]
22 | 237.8 to 238.4 | COc1cc(-c2cnc3[nH]cc(C(=O)O)c3n2)cc(OC)c1OC [Example I-490, 2-(3,4,5-Trimethoxy-phenyl)-5H-pyrrolo[2,3-b]pyrazine-7-carboxylic acid]
23 | 152.9 to 154.7 | CC(C)(C)C(=O)c1c[nH]c2ncc(-c3cccc(OCCN4CCOCC4)c3)nc12 [Example I-41, 2,2-Dimethyl-1-{2-[3-(2-morpholin-4-yl-ethoxy)-phenyl]-5H-pyrrolo[2,3-b]pyrazin-7-yl}-propan-1-one]
24 | 186 to 187 | COc1ccc(F)cc1-c1cnc2[nH]cc(C(=O)CC(C)C)c2n1 [Example I-5, 1-[2-(5-Fluoro-2-methoxy-phenyl)-5H-pyrrolo[2,3-b]pyrazin-7-yl]-3-methyl-butan-1-one]
25 | 143 to 144 | COCc1cccc(-c2cnc3[nH]cc(C(=O)C(C)(C)C)c3n2)c1 [Example I-130, 1-[2-(3-Methoxymethyl-phenyl)-5H-pyrrolo[2,3-b]pyrazin-7-yl]-2,2-dimethyl-propan-1-one]
